Test results as given in patent US5618807A, “Method for preparing 17-substituted steroids useful in cancer treatment” (priority 1992, dated 1997).
Read-outs that look alike come from different tables or passages of the source.

Legend:
[1] = tested on: Male HWT mice; assay type: in vivo; details: for Kidneys mean weight ± standard error: 2 weeks
Protocol: (§1) Male HWT mice, 12 weeks old, were treated daily for 2 weeks, with 5 animals per treatment group. The test compounds were the compound of Examples 1 and 4 (as representative of compounds of the invention having the pregenolone-like and progesterone-like skeletons respectively). Ketoconazole was also tested at three different doses. The test compounds were made up in 5% benzyl alcohol, 95% safflower oil, and were given i.p.. In addition to an untreated control group of animals, there was also a solvent control group which received the same volume of liquid as the test group (5 ml/kg) but no test compound. All animals were sacrificed 24 hours after the last injection. Blood was collected by cardiac puncture into heparinized tubes, and the plasma used for RIA (radio immunoassay) of testosterone and luteinising hormone. The following organs were removed and weighed: adrenals, prostate, seminal vesicles, testes, kidneys. There was no significant body weight loss in any group of mice during the experiments.

[2] = design: species or system mice (male HWT); details: mouse, in vivo, ip
Protocol: as §1
In Ketoconazole-treated animals, adhesions were found in 2/5,2/5,4/5 of the low/middle/top dose groups. […] The livers were brown in the middle/top dose groups.

[3] = tested on: testosterone and luteinising hormone; test: In vivo endocrine test in mice (plasma testosterone and LH by RIA); design: species or system mice (male HWT); details: 2 weeks
Protocol: Male HWT mice, 12 weeks old, were treated daily for 2 weeks, with 5 animals per treatment group. […] The test compounds were made up in 5% benzyl alcohol, 95% safflower oil, and were given i.p.. In addition to an untreated control group of animals, there was also a solvent control group which received the same volume of liquid as the test group (5 ml/kg) but no test compound. All animals were sacrificed 24 hours after the last injection. Blood was collected by cardiac puncture into heparinized tubes, and the plasma used for RIA (radio immunoassay) of testosterone and luteinising hormone.

[4] = biological target: T1, 17α-Hydroxylase (Homo sapiens, UniProt P05093); test: Determination of 17α-hydroxylase inhibition (human testicular microsomes, 3H-progesterone substrate); assay type: biochemical; details: relative to 3-pyridyl compound
T1 construct: A microsomal preparation was prepared essentially as described by S. E. Barrie et al; from tissue; host or cells: human testis microsomes
T1 sequence (P05093 1-508): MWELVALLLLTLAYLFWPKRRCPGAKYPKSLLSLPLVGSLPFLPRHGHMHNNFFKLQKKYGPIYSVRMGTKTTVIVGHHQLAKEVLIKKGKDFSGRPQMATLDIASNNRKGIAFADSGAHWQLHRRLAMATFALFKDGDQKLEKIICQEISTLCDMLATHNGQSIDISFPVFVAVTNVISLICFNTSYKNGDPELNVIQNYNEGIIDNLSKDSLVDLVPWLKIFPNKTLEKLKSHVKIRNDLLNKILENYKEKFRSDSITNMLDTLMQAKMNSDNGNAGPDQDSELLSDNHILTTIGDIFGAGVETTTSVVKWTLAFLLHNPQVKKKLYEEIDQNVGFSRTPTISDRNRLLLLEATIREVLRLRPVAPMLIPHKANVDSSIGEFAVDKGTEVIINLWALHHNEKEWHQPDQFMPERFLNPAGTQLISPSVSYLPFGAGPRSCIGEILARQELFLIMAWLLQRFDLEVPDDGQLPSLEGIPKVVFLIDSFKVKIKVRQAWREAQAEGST
Protocol: (§2) Human testes were obtained from previously untreated patients undergoing orchidectomy for prostatic cancer. The testes were decapsulated and stored in liquid nitrogen until use. […] The material was then thawed, finely chopped, and homogenised in 0.25M sucrose (5 ml/g wet weight) using a Potter homogeniser. The homogenate was centrifuged at 12000 g for 30 min, and then the microsomes were pelleted by spinning the supernatant at 100,000 g for 1 hr. The pellet was washed by being resuspended in 0.25M sucrose and repelleted. The microsomal pellet was then resuspended in 50 mM sodium phosphate pH 7.4/ glycerol (3/1 v/v) and stored in aliquots in liquid nitrogen.
(§3) The basic assay mixture was EDTA (0.2 mM), dithiothreitol (DTT; 0.1 mM), NADPH (0.25 mM), glucose 6-phosphate dehydrogenase (G6PDH; 6.25 μg/ml), MgCl2 (1 mM), glucose 6-phosphate (G6P; 10 mM) and the substrate, ^3 H-progesterone (3 μM) in sodium phosphate (50 mm), pH 7.4. The compounds under test were dissolved in 50% DMSO and the final concentrations of ethanol and DMSO were 1% each. The assay reaction was carried out for 1 hour and was terminated by the addition of 2 vols. of methanol-acetonitrile (2:1) containing approx. 100 μM unlabelled progesterone, 17α-hydroxyprogesterone, androstenedione, testosterone, and 16α-hydroxyprogesterone.
The separation of the steroids by HPLC was carried out using an "Uptight" guard column packed with 40-63 μm Nucleosil C18 and a 10 cm main column packed with 5 μm Nucleosil C18 and 60% methanol as eluant. The radioactivity in the peaks of interest was monitored on-line by mixing the HPLC effluent 1:1 with Ecoscint A (National Diagnostics) scintillation fluid, containing 25% acetonitrile, and passing the mixture through a Berthold LB506C radiochemical monitor. The hydroxylase activity was measured as the production of 17α-hydroxyprogesterone, androstenedione and testosterone.
The enzyme activity was measured in the presence of at least 4 concentrations of each compound. […]

[5] = biological target: T2, C17-C20 lyase (Homo sapiens, UniProt P05093); test: Determination of C17-C20 lyase inhibition (human testicular microsomes, 3H-17α-hydroxyprogesterone substrate); assay type: biochemical; details: for concentration required to achieve 50% inhibition of lyase, compared with the 3-pyridyl (in words): relative to 3-pyridyl compound
T2 construct: A microsomal preparation was prepared essentially as described by S. E. Barrie et al; from tissue; host or cells: human testis microsomes
T2 sequence (P05093 1-508): T1 sequence (P05093 1-508)
Protocol: as §2, §3
The mixture was the same as described above for the 17αt-hydroxylase except that the substrate was ^3 H-17α-hydroxy- progesterone.
The HPLC separation used for the lyase involved a mini-re-column "Uptight Guard Column" packed with PELL-ODS (pellicular octadecyl silica) and a 10 cm. main column "Apex C18" column packed with 5 μ, APEX-CAT silica.
The eluant was 38:12:50 methanol:acetonitrile:water flowing at 1 ml/min. The effluent was mixed 1:1 with Ecoscint A containing 5% methanol and 5% acetonitrile and the radioactivity was measured directly by a Berthold LB506C radiochemical detector. The lyase activity was measured as the production of androstenedione and testosterone.
The enzyme activity was measured in the presence of at least 4 concentrations of each compound. […] Data for all the other compounds were fitted by non-linear regression to the median effect equation of Chou, J. Theoret.

[6] = biological target: T3, aromatase (Homo sapiens, UniProt P11511); assay type: biochemical; details: human placental microsomes used; read-out: Michaelis constant Km
T3 construct: using human placental microsomes; from tissue; host or cells: human placental microsomes
T3 sequence (P11511 1-503): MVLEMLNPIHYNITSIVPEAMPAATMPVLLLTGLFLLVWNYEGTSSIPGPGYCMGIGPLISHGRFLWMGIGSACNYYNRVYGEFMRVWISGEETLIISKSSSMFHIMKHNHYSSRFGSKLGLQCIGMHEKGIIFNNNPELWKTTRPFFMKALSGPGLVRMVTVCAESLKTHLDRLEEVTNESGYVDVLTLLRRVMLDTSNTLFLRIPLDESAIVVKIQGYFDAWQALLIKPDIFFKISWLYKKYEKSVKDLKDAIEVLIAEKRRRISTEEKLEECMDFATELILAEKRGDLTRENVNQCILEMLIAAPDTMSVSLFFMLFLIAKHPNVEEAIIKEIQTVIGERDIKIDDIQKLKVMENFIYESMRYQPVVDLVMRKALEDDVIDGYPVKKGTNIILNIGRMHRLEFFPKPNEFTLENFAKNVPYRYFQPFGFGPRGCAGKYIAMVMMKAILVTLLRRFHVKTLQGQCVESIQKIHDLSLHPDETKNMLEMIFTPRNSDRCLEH
Protocol: Aromatase activity was determined by the method of A. B. Foster et all., J. Med. Chem. 26, 50-54 (1983), using human placental microsomes.

SMILES: CC(=O)O[C@H]1CC[C@@]2(C)C(=CC[C@@H]3[C@@H]2CC[C@]2(C)C(c4cccnc4)=CC[C@@H]32)C1 [Example 1, 3β-acetoxy-17-(3-pyridyl)androsta-5,16-diene]
- Kidneys mean weight ± standard error ([1]; 0.02 mmol/kg/day i.p.): 604 ± 24 mg
- Kidneys mean weight ± standard error ([1]; 0.1 mmol/kg/day i.p.): 500 ± 8 mg
- Kidneys mean weight ± standard error ([1]; 0.5 mmol/kg/day i.p.): 449 ± 12 mg
- post mortem examination: appearance of organs [2]: all organs looked normal
- post mortem examination: deposits [2]: oil/white deposits i.p.
- Testosterone (mean ± standard error) ([3]; 0.02 mmol/kg/day i.p.): 2.7 ± 0.5 nM
- Testosterone (mean ± standard error) ([3]; 0.1 mmol/kg/day i.p.): 0.2 ± 0.1 nM
- Testosterone (mean ± standard error) ([3]; 0.5 mmol/kg/day i.p.): 0.1 ± 0.0 nM

SMILES: C[C@]12CC[C@H](O)CC1=CC[C@@H]1[C@@H]2CC[C@]2(C)C(c3ccccn3)=CC[C@@H]12 [Example 2-Pyridyl]
- concentration required to achieve 50% inhibition of hydroxylase, compared with the 3-pyridyl (in words) [4]: far greater
- concentration required to achieve 50% inhibition of lyase, compared with the 3-pyridyl (in words) [5]: far greater

SMILES: C[C@]12CC[C@H](O)CC1=CC[C@@H]1[C@@H]2CC[C@]2(C)C(Cc3ccccn3)=CC[C@@H]12 [Example 2-picolyl]
- concentration required to achieve 50% inhibition of hydroxylase, compared with the 3-pyridyl (in words) [4]: far greater
- concentration required to achieve 50% inhibition of lyase, compared with the 3-pyridyl (in words) [5]: far greater

SMILES: C[C@]12CCC(=O)C=C1CC[C@@H]1[C@@H]2CC[C@]2(C)C(c3cccnc3)=CC[C@@H]12 [Example 4, 17-(3-Pyridyl)androsta-4,16-dien-3-one]
- post mortem examination: appearance of organs [2]: all organs looked normal
- post mortem examination: deposits [2]: white deposits throughout the abdomen

SMILES: C[C@]12CC[C@H](O)CC1=CC[C@@H]1[C@@H]2CC[C@]2(C)C(c3ccncc3)=CC[C@@H]12 [Example 4-pyridyl]
- concentration required to achieve 50% inhibition of hydroxylase, compared with the 3-pyridyl (in words) [4]: far greater
- concentration required to achieve 50% inhibition of lyase, compared with the 3-pyridyl (in words) [5]: far greater

SMILES: C[C@]12CCC(=O)C=C1[C@@H](F)C[C@@H]1[C@@H]2CC[C@]2(C)C(c3cccnc3)=CC[C@@H]12 [Example 12, 6α-Fluoro-17-(3-pyridyl)androsta-4,16-dien-3-one]
- IC50 ([5]; Table 2, approx. 4 nM enzyme, listed as Ex. 12): 2.2 nM

SMILES: CC(=O)N1CCN(c2ccc(OCC3COC(Cn4ccnc4)(c4ccc(Cl)cc4Cl)O3)cc2)CC1 (centres unmarked) [Ketoconazole]
- effect on adrenal weight (in words) ([1]; mouse, in vivo): increase in adrenal weight
- post mortem examination: gut and peritoneal wall [2]: seemed to be stuck to the seminal vesicles

SMILES: [3H][C@@H]1CC(=O)C=C2CC[C@@H]3[C@H](CC[C@]4(C)C(=O)CC[C@@H]34)[C@]21C [[1β-^3 H]androstenedione]
- Km [6]: 0.039 µM
